Measurements from patent US8586108B2, “Extracts of Chenopodium ambrosioides L., the compositions comprising said extracts, the preparing process and application thereof” (Tasly Pharmaceutical Group Co., Ltd, priority 2005, dated 2013).
Marks after values point to notes of the source that are not given here.

Key:
[1] = system: acetic acid-cautery type gastric ulcer; experiment: Effect on gastric ulcer of rats induced by acetic acid cautery; assay type: in vivo, Wistar rats; conditions: 200 mg/kg i.g. once per day for 13 days; X ± SD, n = 10
Protocol: Eighty Wistar rats weighing between 200-220 g were selected in this experiment, male and female in half, and were randomly divided into 8 groups, 10 rats per group. Drugs were continually administered i.g. with the dosage listed in Table 2 for 13 days, once per day, while the model control group was administered i.g. with the same volume of vegetable oil. The model was established after 2 hours of the third administration. The rats were fasted for 24 hours before model-establishing and anaesthetized by ether, their abdomens were shaved and sterilized. A small incision was cut along the midline of the xiphoid. The stomach was gently pulled out, 10 μL 40% acetic acid was injected underneath the stomach chorion near pyloric gland areas. The stomach was then put back to the abdomen, and the incision was sewed up. Drugs were administered after operation. The rats were fasted for 24 hours after the last administration, and the animals were executed after being anaesthetized by urathane. […] After rinsing the content of stomach with saline, the stomach was fixed with 1% formaldehyde for 10 min, and then the diameters of ulcer points were measured using precise calipers and the ulcer areas were calculated. Ink was injected with a micro-syringe until its level reached the surface of gastric mucous membrane, and the volume of the injected ink was recorded. […]

[2] = system: gastric ulcers of pyloric ligation type; experiment: Effect on gastric ulcers of pyloric ligation type in rats; assay type: in vivo, Wistar rats; conditions: 200 mg/kg i.g. once per day for 3 days; 5 grades by Okabe's method; X ± SD, n = 10
Protocol: Eighty Wistar rats weighing about 160 g were selected in this experiment, male and female in half, and were randomly divided into 8 groups, 10 rats per group. Drugs were continually administered i.g. with the dosage listed in Table 3 for 3 days, once per day, while the model control group was administered i.g. with the same volume of vegetable oil. The animals were anaesthetized by ether after 2 hours of the last administration (the rats were fasted for 48 hours before administration), and their abdomens were shaved and sterilized. A small incision was cut below the xiphoid. Their stomach was gently pulled out, and the stomach was then put back to the abdomen after pyloric ligation, and the incision was sewed up. After operation, the rats were abstained from food and water for 6 hours and executed after anaesthesia. The abdomen was cut open, the cardia was ligated, and the whole stomach was taken out and cut open along the greater curvature of stomach. After rinsing the content of stomach with saline, the stomach was fixed with 1% formaldehyde for 10 min, and then the diameters of the ulcer points were measured using precise calipers. Degree of the ulcer was expressed by total area of all ulcer points of each rat and was classified into 5 grades according to Okabe's method as index of ulcer.

## CNC(=C[N+](=O)[O-])NCCSCc1ccc(CN(C)C)o1 [Ranitidine]
[1]
  Ulcer area: 8.08 ± 5.72** mm^2
  Volumes of injected ink in ulcer region: 2.85 ± 2.63 µL
[2]
  Index of Ulcer: 0.8 ± 0.6
